Reference: patent US4740517A, “Antidiabetic spiro-3-heteroazolidines” (Sanwa Kagaku Kenyusho Co., Ltd., priority 1985, dated 1988)

Key:
aldose reductase enzyme = biological target: T1, aldose reductase enzyme (Rattus norvegicus, UniProt P07943); assay: inhibition of aldose reductase enzyme activity using water-soluble extracts of rat lenses (Kador and Sharpless procedure); type: biochemical; conditions: for inhibition at 10 µM: 10^-5 M; for inhibition at 1 µM: 10^-6 M; for inhibition at 0.1 µM: 10^-7 M; for IC50: read-out: IC50 (concentration of inhibitor which gives 50% inhibition)
T1 construct: Using water-soluble extracts of rat lenses; from tissue; host or cells: rat lens, water-soluble extract
Protocol: Using water-soluble extracts of rat lenses, the inhibitions of these compounds were determined.

[1] = test system: polyol increase in sciatic nerve of galactosemic rats; assay: reduction or inhibition of polyol (galactitol) increase in sciatic nerve of galactosemic rats; type: in vivo, rat; conditions: for Percent Inhibition (%) as compared to galactitol increase of the control animals: rats, 30% galactose diet, oral 10 mg/kg once a day for 8 days, sciatic nerve removed on 9th day
Protocol: Some spiro-3-heteroazolidine compounds according to the invention were tested to evaluate their ability on reduction or inhibition of polyol increase in sciatic nerve of galactosemic rats. To the rats, 30% galactose diet was fed and said compounds were orally administered at a dose of 10 mg/kg once a day for a period of 8 days. Control animals were received the galactose diet and were administered no such compound. One day after final administration (on 9th day from the first administration), sciatic nerves were removed for galactitol determination.

[2] = read-out: Percent Inhibition (%) of aldose reductase enzyme activity

Row | Compound | inhibition at 10 µM (aldose reductase enzyme; [2]) | inhibition at 1 µM (aldose reductase enzyme; [2]) | inhibition at 0.1 µM (aldose reductase enzyme; [2]) | IC50 (aldose reductase enzyme) | inhibition at 0.01 µM (aldose reductase enzyme; 10^-8 M, read-out: Percent Inhibition (%) of aldose reductase enzyme activity) | Percent Inhibition (%) as compared to galactitol increase of the control animals [1] | ability to reduce or inhibit polyol increase in sciatic nerve of galactosemic rats, potency of diastereoisomers ([1]; major versus minor diastereoisomer of Example 1) | inhibition of polyol accumulation in sciatic nerve (in words) [1]
1 | O=C1NC(=O)C2(CC(CCl)Oc3ccc(F)cc32)N1 (stereo not drawn) [Example 13, 2-Chloromethyl-6-fluoro-2,3-dihydro-spiro[4H-1-benzopyran-4,4'-imidazolidine]-2',5'-dione] | 90% | 51% | 3% | 1000 nM | – | 88% | – | –
2 | COc1ccc(NC(=O)C2CC3(NC(=O)NC3=O)c3cc(F)ccc3O2)cc1 (stereo not drawn) [Example 8, 6-Fluoro-2,3-dihydro-N-(4-methoxyphenyl)-2',5'-dioxo-spiro[4H-1-benzopyran-4,4'-imidazolidine]-2-carboxamide] | 81% | 81% | 65% | 70 nM | 14% | 26% | – | –
3 | NC(=O)C1CC2(NC(=O)NC2=O)c2cc(F)ccc2O1 (stereo not drawn) [Example 2, 6-Fluoro-2,3-dihydro-2',5'-dioxo-spiro[4H-1-benzopyran-4,4'-imidazolidine]-2-carboxamide] | 93% | 85% | 15% | 400 nM | – | 85% | – | excellent

Second part, led by results:

Row | inhibition at 10 µM (aldose reductase enzyme; [2]) | inhibition at 1 µM (aldose reductase enzyme; [2]) | inhibition at 0.1 µM (aldose reductase enzyme; [2]) | IC50 (aldose reductase enzyme) | inhibition at 0.01 µM (aldose reductase enzyme; 10^-8 M, read-out: Percent Inhibition (%) of aldose reductase enzyme activity) | Compound | Percent Inhibition (%) as compared to galactitol increase of the control animals [1] | ability to reduce or inhibit polyol increase in sciatic nerve of galactosemic rats, potency of diastereoisomers ([1]; major versus minor diastereoisomer of Example 1) | inhibition of polyol accumulation in sciatic nerve (in words) [1]
4 | 71% | 78% | 26% | 500 nM | – | CNC(=O)C1CC2(NC(=O)NC2=O)c2cc(F)ccc2O1 (stereo not drawn) [Example 3, 6-Fluoro-2,3-dihydro-N-methyl-2',5'-dioxo-spiro[4H-1-benzopyran-4,4'-imidazolidine]-2-carboxamide] | 31% | – | –
5 | 77% | 47% | 9% | 6000 nM | – | O=C1NC(=O)C2(CC(C(=O)O)Oc3ccc(F)cc32)N1 (stereo not drawn) [Example 1, 6-Fluoro-2,3-dihydro-2',5'-dioxo-spiro[4H-1-benzopyran-4,4'-imidazolidine]-2-carboxylic acid] | 36% | greater than that of the minor diastereoisomer | –
6 | 85% | 28% | 13% | 4000 nM | – | O=C1NC(=O)C2(CC(CO)Oc3ccc(F)cc32)N1 (stereo not drawn) [Example 12, 6-Fluoro-2,3-dihydro-2-hydroxymethyl-spiro[4H-1-benzopyran-4,4'-imidazolidine]-2',5'-dione] | 40% | – | –
7 | 61% | 29% | 10% | 5000 nM | – | CN(C)C(=O)C1CC2(NC(=O)NC2=O)c2cc(F)ccc2O1 (stereo not drawn) [Example 5, 6-Fluoro-2,3-dihydro-N,N-dimethyl-2',5'-dioxo-spiro[4H-1-benzopyran-4,4'-imidazolidine]-2-carboxamide] | 70% | – | excellent
